“And” between values parts separate entries of the source, which are not always exact repeats. Equal values may be shown once. Toxic doses and inconclusive results are not listed. No stated cut-off is given here; in the data, active means T/C of 150% or more; inactive means T/C below 125%.
System: L1210 leukemia ip in BDF1 mice, survival T/C
Test: NCI In Vivo Anticancer Drug Screen. Data for tumor model L1210 Leukemia (intraperitoneal) in B6D2F1 (BDF1) mice
Settings: endpoint: mean survival time, higher = longer survival
Method in brief: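 Value reflects the ratio of survival in compound-treated mice to survival in vehicle-treated controls, with both groups carrying the same transplanted tumor.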

[1] = dose: 100.0 mg/kg/injection, schedule: Q01DX001 (ip), vehicle: saline
[2] = dose: 200.0 mg/kg/injection, schedule: Q01DX001 (ip), vehicle: saline
[3] = dose: 400.0 mg/kg/injection, schedule: Q01DX001 (ip), vehicle: saline
[4] = dose: 100.0 mg/kg/injection, schedule: Q01DX001 (ip), vehicle: Klucel (hydroxypropylcellulose) (HPC)
[5] = dose: 200.0 mg/kg/injection, schedule: Q01DX001 (ip), vehicle: Klucel (hydroxypropylcellulose) (HPC)
[6] = dose: 100.0 mg/kg/injection, schedule: Q01DX009 (ip), vehicle: Klucel (hydroxypropylcellulose) (HPC)
[7] = dose: 200.0 mg/kg/injection, schedule: Q01DX009 (ip), vehicle: Klucel (hydroxypropylcellulose) (HPC)
[8] = dose: 400.0 mg/kg/injection, schedule: Q01DX009 (ip), vehicle: Klucel (hydroxypropylcellulose) (HPC)
[9] = dose: 50.0 mg/kg/injection, schedule: Q01DX001 (ip), vehicle: carboxymethylcellulose (CMC)
[10] = dose: 50.0 mg/kg/injection, schedule: Q01DX009 (ip), vehicle: saline with Tween-80
[11] = dose: 100.0 mg/kg/injection, schedule: Q01DX001 (ip), vehicle: carboxymethylcellulose (CMC)
[12] = dose: 100.0 mg/kg/injection, schedule: Q01DX009 (ip), vehicle: saline with Tween-80
[13] = dose: 200.0 mg/kg/injection, schedule: Q01DX001 (ip), vehicle: carboxymethylcellulose (CMC)
[14] = dose: 400.0 mg/kg/injection, schedule: Q01DX001 (ip), vehicle: carboxymethylcellulose (CMC)
[15] = dose: 25.0 mg/kg/injection, schedule: Q01DX009 (ip), vehicle: Klucel (hydroxypropylcellulose) (HPC)
[16] = dose: 50.0 mg/kg/injection, schedule: Q01DX009 (ip), vehicle: Klucel (hydroxypropylcellulose) (HPC)
[17] = dose: 100.0 mg/kg/injection, schedule: Q04DX003 (ip), vehicle: Klucel (hydroxypropylcellulose) (HPC)
[18] = dose: 200.0 mg/kg/injection, schedule: Q04DX003 (ip), vehicle: Klucel (hydroxypropylcellulose) (HPC)
[19] = dose: 400.0 mg/kg/injection, schedule: Q04DX003 (ip), vehicle: Klucel (hydroxypropylcellulose) (HPC)

Measured: T/C

N/N=C(\c1ccccc1)c1ccncc1
inactive: dose: 44.0 mg/kg/injection, schedule: Q01DX Z (ip), vehicle: methylcellulose (MC) 106 % of control | dose: 66.0 mg/kg/injection, schedule: Q01DX Z (ip), vehicle: methylcellulose (MC) 90 % of control | dose: 100.0 mg/kg/injection, schedule: Q01DX Z (ip), vehicle: methylcellulose (MC) 87 % of control

O=C1CCN(S(=O)(=O)c2ccccc2)c2ccccc21
inactive: [1] 94 % of control | [2] 94 % of control | [3] 92 % of control

CN(C)c1ccc(-c2cc(NS(=O)(=O)c3ccccc3)ccc2NS(=O)(=O)c2ccccc2)cc1
inactive: [4] 96 % of control | [5] 94 % of control | dose: 400.0 mg/kg/injection, schedule: Q01DX001 (ip), vehicle: Klucel (hydroxypropylcellulose) (HPC) 96 % of control

O=C(C(=C(c1ccccc1)c1ccccc1)N1CCCCC1)c1ccccc1
inactive: [1] 96 % of control | [6] 92 % of control | [2] 97 % of control | [7] 92 % of control | [3] 97 % of control | [8] 92 % of control

CN(C)CCC=C1c2ccccc2-c2ccccc21
inactive: dose: 15.0 mg/kg/injection, schedule: Q01DX015 (ip), vehicle: carboxymethylcellulose (CMC) 88 % of control | dose: 25.0 mg/kg/injection, schedule: Q01DX009 (ip), vehicle: saline with Tween-80 105 % of control | dose: 30.0 mg/kg/injection, schedule: Q01DX015 (ip), vehicle: carboxymethylcellulose (CMC) 92 % of control | [9] 93 % of control | [10] 96 % of control | dose: 60.0 mg/kg/injection, schedule: Q01DX015 (ip), vehicle: carboxymethylcellulose (CMC) 92 % of control | [11] 104 % of control | [12] 111 % of control | dose: 100.0 mg/kg/injection, schedule: Q04DX003 (ip), vehicle: saline 115 % of control | dose: 120.0 mg/kg/injection, schedule: Q01DX015 (ip), vehicle: carboxymethylcellulose (CMC) 92 % of control | [13] 98 % of control | [14] 101 % of control

CCCCC(CCCC)NCC(C)OC(=O)c1ccc(N)cc1 (configuration not stated)
inactive: dose: 9.5 mg/kg/injection, schedule: Q01DX001 (ip), vehicle: other 100 % of control | dose: 19.0 mg/kg/injection, schedule: Q01DX001 (ip), vehicle: other 105 % of control | dose: 38.0 mg/kg/injection, schedule: Q01DX001 (ip), vehicle: other 96 % of control | dose: 75.0 mg/kg/injection, schedule: Q01DX001 (ip), vehicle: other 92 % of control

Cc1cc(N=Nc2ccc([N+](=O)[O-])cc2)ccc1O
inactive: [4] 98 % of control | [5] 95 % of control

CC(=O)C1CCC2C3CCC4=CC(=O)CC4(C)C3CCC12C (configuration not stated)
inactive: [10] 113 % of control | [12] 105 % of control | dose: 200.0 mg/kg/injection, schedule: Q01DX009 (ip), vehicle: saline with Tween-80 90 % of control

O=c1c2ccccc2oc2ccccc12
inactive: dose: 100.0 mg/kg/injection, schedule: Q01DX001 (ip), vehicle: saline with Tween-80 102 % of control | dose: 100.0 mg/kg/injection, schedule: Q04DX003 (ip), vehicle: saline with Tween-80 96 % of control | dose: 200.0 mg/kg/injection, schedule: Q01DX001 (ip), vehicle: saline with Tween-80 102 % of control | dose: 200.0 mg/kg/injection, schedule: Q04DX003 (ip), vehicle: saline with Tween-80 97 % of control | dose: 400.0 mg/kg/injection, schedule: Q01DX001 (ip), vehicle: saline with Tween-80 102 % of control

CCN(CC)CCOC(=O)/C=C/c1ccc([N+](=O)[O-])o1
inactive: dose: 50.0 mg/kg/injection, schedule: Q01DX Z (ip), vehicle: saline 103 % of control | dose: 75.0 mg/kg/injection, schedule: Q01DX Z (ip), vehicle: saline 109 % of control | dose: 113.0 mg/kg/injection, schedule: Q01DX Z (ip), vehicle: saline 112 % of control

O=C(N/N=C\c1c(Cl)cccc1Cl)N/N=C/c1c(Cl)cccc1Cl
inactive: dose: 100.0 mg/kg/injection, schedule: Q04DX002 (ip), vehicle: saline with Tween-80 89 % of control | dose: 200.0 mg/kg/injection, schedule: Q04DX002 (ip), vehicle: saline with Tween-80 99 % of control | dose: 400.0 mg/kg/injection, schedule: Q04DX002 (ip), vehicle: saline with Tween-80 95 % of control

O=C(CCCC(=O)N/N=C/c1cccc2ccccc12)N/N=C/c1cccc2ccccc12
inactive: dose: 50.0 mg/kg/injection, schedule: Q01DX001 (ip), vehicle: other 93 % of control | dose: 100.0 mg/kg/injection, schedule: Q01DX001 (ip), vehicle: other 91 % of control | dose: 200.0 mg/kg/injection, schedule: Q01DX001 (ip), vehicle: other 91 % of control | dose: 400.0 mg/kg/injection, schedule: Q01DX001 (ip), vehicle: other 87 % of control

Nc1nc(N)nc(CCP(CCc2nc(N)nc(N)n2)CCc2nc(N)nc(N)n2)n1
inactive: [15] 110 % of control | [16] 108 % of control | [6] 104 % of control | [17] 110 % of control and 113 % of control | [18] 98 % of control and 100 % of control | [19] 101 % of control

c1ccc(N/N=C(/C[n+]2cc3ccccc3c3ccccc32)c2ccccc2)cc1
inactive: dose: 12.5 mg/kg/injection, schedule: Q01DX009 (ip), vehicle: Klucel (hydroxypropylcellulose) (HPC) 100 % of control | [15] 89 % of control | [16] 102 % of control | [6] 100 % of control

CCSC(C(OC(C)=O)C(OC(C)=O)C(OC(C)=O)C(COC(C)=O)OC(C)=O)n1cc(C)c(=O)[nH]c1=O (configuration not stated)
inactive: [9] 100 % of control and 97 % of control | [11] 97 % of control and 94 % of control | [13] 100 % of control | [14] 100 % of control and 103 % of control

Cc1ccc(S(=O)(=O)N2CCC(Br)C(=O)c3ccccc32)cc1 (configuration not stated)
inactive: [1] 94 % of control | dose: 100.0 mg/kg/injection, schedule: Q01DX009 (ip), vehicle: saline 107 % of control | [2] 107 % of control | dose: 200.0 mg/kg/injection, schedule: Q01DX009 (ip), vehicle: saline 109 % of control | [3] 100 % of control | dose: 400.0 mg/kg/injection, schedule: Q01DX009 (ip), vehicle: saline 97 % of control

CCN(CC)CCCC#N
inactive: dose: 50.0 mg/kg/injection, schedule: Q01DX001 (ip), vehicle: saline 100 % of control | [1] 105 % of control | [2] 102 % of control

Brc1ccc(C#Cc2ccccc2)cc1
inactive: [6] 100 % of control | [7] 100 % of control | [8] 108 % of control

COC(=O)C(C)Oc1ccc([N+](=O)[O-])c(O)c1[N+](=O)[O-] (configuration not stated)
inactive: [17] 100 % of control | [18] 91 % of control | [19] 96 % of control

NC1=NC(CNC(=O)c2cccc([N+](=O)[O-])c2)N(c2cccc(Cl)c2)C(N)=N1 (configuration not stated)
inactive: dose: 50.0 mg/kg/injection, schedule: Q01DX Z (ip), vehicle: methylcellulose (MC) 93 % of control

O=C(C=C(C(F)(F)F)C(F)(F)F)c1cccc2ccccc12
inactive: dose: 12.5 mg/kg/injection, schedule: Q01DX009 (ip), vehicle: gum acacia 107 % of control | dose: 25.0 mg/kg/injection, schedule: Q01DX009 (ip), vehicle: gum acacia 100 % of control | dose: 50.0 mg/kg/injection, schedule: Q01DX009 (ip), vehicle: gum acacia 100 % of control | dose: 100.0 mg/kg/injection, schedule: Q04DX003 (ip), vehicle: gum acacia 100 % of control | dose: 200.0 mg/kg/injection, schedule: Q04DX003 (ip), vehicle: gum acacia 97 % of control | dose: 400.0 mg/kg/injection, schedule: Q04DX003 (ip), vehicle: gum acacia 91 % of control

— PubChem BioAssay AID248 (DTP/NCI, 2004)
